Where two headings read alike, the source gives them in different places.
Legend:
[1] = test system: healthy volunteers (two ex-smokers and one non-smoker); conditions: in vivo
[2] = from cigarettes containing 6 to 11 mg of nicotine; cited from earlier work
[3] = test system: smokers; conditions: nicotine containing droplets delivered to the alveolar region; cited from earlier work

Row | Compound | Adverse effects ([1]; pH 2.9) | Comment (sensory perceptions and effects) ([1]; pH 3) | Adverse effects ([1]; pH 3.2) | Comment (sensory perceptions and effects) ([1]; pH 3.2) | Presence/Intensity of “buzz” ([1]; pH 3.2) | nicotine the smoker typically absorbs [2] | craving for cigarettes [3]
1 | CN1CCCC1c1cccnc1.O=C(O)C(O)C(O)C(=O)O (stereo not shown) [Nicotine Bitartrate, Nicotine bitartrate] | Slight | No taste, buzz | Slight | No taste, buzz | None | – | –
2 | CN1CCC[C@H]1c1cccnc1 [nicotine, S-3-(1-methyl-2-pyrrolidinyl)pyridine] | – | – | – | – | – | 1 to 3 mg | very rapid and sustained reduction of craving for cigarettes
